Several values for one entry are separate records, joined by “and”; a condition that tells them apart may be missing. Equal values may be shown once. Entries after “also recorded” stand apart in the source; their conditions may differ. Read-outs that look alike come from different tables or passages of the source.
Key:
[1] = tested on: association between Ras and Raf; assay: Ras-Raf immunoprecipitation assay in DU145 cells; type: cell-based, human; settings: lysates of treated DU145 cells; 1 μM HF, 10 ng/ml EGF, 1 μM 9-cis retinoic acid
Description: 8. […] (A) DU145 cells were treated with ethanol (lane 1), 10 ng/ml EGF (lane 2), 1 μM 9-cis retinoic acid (lane 3), and 1 μM HF (lane 4) after 24 hour serum starvation. Cells were lysed and 300 μg of total protein were immunoprecipitated with anti-Ras antibody, pulled-down by a protein A/G agarose beads, and detected with an anti-Raf antibody. (B) DU145 cells were transfected with pCDNA3.1 or pCDNA3.1-Ras N17 as indicated. After 24 hours serum starvation, the cells were treated with different ligands for 20 min, and then harvested. Western blots were performed with antibodies against phosphoERK1/2 and ERK1/2. The density of phospho-ERK1/2 shown as Optical Density (OD) were determined by the Versa Doc Imaging System (Bio-Rad) and quantified by Quantity One software.
200. Serum-stared and treated DU145 cells were lysed with RIPA buffer for 30 min on ice. Lysates were then centrifuiged at 12,000 g for 10 min at 4° C. and protein concentrations were determined by the Bradford assay. 500 μg of cell lysates were incubated for 4 hours with either anti-Ras or anti-EGFR antibody (1/100, Santa Cruz Biotechnology) to the protein-antibody mixture and then added in 20 μl of protein A/G plus-agarose (Santa Cruz Biotechnology) for another 4 hours incubation with constant rotation. The immunoprecipitates were washed four times with cold PBS, resolved by SDS-PAGE, and immunoblotted by anti-Raf-1 antibody, or anti-phospho-tyrosine monoclonal antibody (Oncogene Research, Calbiochem, La Jolla, Calif.). The results were visualized by chemiluminescence.

[2] = tested on: p44/42 MAP kinase (ERK1 and 2); assay: Immunoblot of phosphorylated p44/42 MAP kinase in DU145 cells; type: cell-based, human
Description: 7. […] (A) DU145 cells were grown in 100 mm dishes and serum-starved for 24 hours. The cells were lysed on ice. Equal amounts of cell lysate were analyzed by 12% SDS-PAGE and subsequent immunoblotted with anti-phospho ERK1/2 and anti-ERK1/2 antibodies. (B) Different cell lines, at 70 to 80% confluence, were lysed and immunoblotted with anti-AR polyclonal antibody, NH27. (C) DU145 cells were pre-incubated with MEK1/2 inhibitor U0126, or U0124 before HF, EGF, and ethanol treatment. Cells were lysed and immunoblotted with anti-phospho ERK1/2 and anti-ERK1/2 antibodies. (D) CWR2 and (E) PC3-AR cells were grown in 100 mm dishes and serum-starved for 24 hours. The cells were treated with HF, EGF or ethanol vehicle for 15 mins and immunoblotted with anti-phospho-ERK1/2 and anti-ERK1/2 antibodies. […] MMTV-ARE-Luc reporter plasmid was cotransfected with or without pSG5AR into DU145 cells. After 18 hours, cells were treated with 1 nM DHT, 1 μM HF or both for another 18 hours, and then harvested. Cell lysates were collected and assayed for the luciferase activity.
9. […] After 15 min treatment, cells were lysed and immunoblotted with anti-phospho ERK1/2 and antiERK1/2 antibodies. […] EGFR was immunoprecipitated from the cell lysates, and their phosphotyrosine level was determined by anti-phosphotyrosine antibody. All the results were visualized using enhanced chemiluminescence.
198. This assay uses a polyclonal antibody specific against the activated p44/42 MAP kinases (Cell Signaling Technology, Beverly, Mass.), which detects p44 and p42 MAP kinase (ERK1 and 2) only when catalytically activated by dual phosphorylation at Thr202 and Tyr204. DU145 cells were seeded at 1×10^5 cells per 100 mm plate and allowed to attach overnight and then the media were replaced with serum-free DMEM media for 24 hours. The cells were pre-treated with MAP kinase inhibitors, EGFR antibodies, or cycloheximide for 1 hour and followed by HF, EGF, or vehicle treatment. Cells were washed twice with PBS, harvested at indicated times, and lyzed with RIPA buffer for 30 min on ice. The protein concentrations were determined by Bradford assay, and equal amount of protein was resolved by SDS-PAGE. Gels were transferred, immunoblotted with p44/42 MAP kinase antibody (1/1000), and then incubated with secondary antibody. Proteins were visualized by the enhanced chemiluminescence system (NEN™ Life Science Products, Boston, Mass.). P44/42 MAP kinase (total ERK1/2) was blotted as a control.

phospho-ERK1/2 = assay: Immunocytochemical staining of phospho-ERK1/2 in patients' prostate tumor biopsies; type: in vivo, human; settings: recurrent tumors of four patients progressing while receiving flutamide (androgen ablation therapy); one value per patient
Description: 6. […] Prostate tumor tissue sections from the same patient with either the pre- (A and C) and post-androgen ablation plus flutamide therapy (B and D), were immunohistochemically stained for phosphorylated ERK1/2. Sections were counterstained with Mayer Hematoxylin Blue (A and B). Original magnification ×400.
196. Immunocytochemical staining were performed on formalin-fixed, paraffin-embedded tissue sections using antibodies ERK1,and ERK2 (SC-94, and SC-154, 1/400 dilution), and phospho-ERK1/2 (SC-7383, 1/50 dilution) all from Santa Cruz (Santa Cruz, Calif.). Sections were cut at 4 to 5 microns and deparaffinized according to established procedures and quenched with 3% hydrogen peroxide for 6 min. Antigen unmasking with heat retrieval in citrate buffer/pH 6.0 was accomplished by placing slides in a microwave (1500 watts) pressure cooker for 30 minutes. Slides were rinsed and stained for 45 minutes with primary antibody, and then incubated for 20 min with secondary antibody and streptavidin-HRP. Slides were developed with AEC+, rinsed and counterstained with Mayer Hematoxylin Blue in 0.3% ammonia water.
201. […] Each slide was examined and scored the number of the cells stained positive for phosph-ERK1/2 under the 100× high power field. […]

DU145 cells = assay: Cell proliferation assay (hemacytometer counting); type: cell-based, human
Description: 10. […] (A) DU145 cells were seeded in 10% FBS DMEM medium and 24 hours later cells were changed to serum free medium. 48 hours later changed the medium to 0.5% FBS medium and treated with ethanol, HF, or EGF. Every 24 hours, the cells were counted by hemacytometer. […]. […] (B) DU145 cells were seeded and transfected with anti-sense oligonucleotide of Ras (IRIS 2503: 5′-[…]-3′), Raf (IIUS: 5132:5′-[…]-3′) and HIV (5′-[…]-3′) (Chen, G., Oh, S., Monia B. P., and Stacey, D. W., J. Biol. Chem., 271: 28259-28265, 1996, Monia, B. P., et al., Proc. Natl. Acad. Sci. USA, 93: 15481-15484, 1996.) by SuperFect (Qiagen). 24 hour after serum starvation, we changed the cells to medium containing 0.5% FBS, and treated the cells as described in A. Cells were counted by hemacytometer every 24 hours. The cell lysate were blotted with anti-H-Ras and Raf antibodies and β-actin was blotted for loading control.
199. DU145 cells were seeded at 2×10^4/ml on 35 mm plates and allowed to attach overnight. Cells were kept in serum-free DMEM medium for 24 hours, and then media were replaced with DMEM-0.5% FBS and treated as indicated. Cells were trypsinized and counted with a hemacytometer at different times after treatments. For the antisense oligonuleotide experiments, cells were incubated with a fixed ratio of oligonucleotide versus SuperFect (2.5 μl of SuperFect per 100 nM oligo) for 4 hours and then the oligo-containing medium was replaced with DMEM-0.5% FBS. Cells were trypsinized and counted by hemacytometer at indicated times.

cyclin D1 = assay: Western blot of cyclin D1 and cell cycle related gene products in DU145 cells; type: cell-based, human
Description: (§1) 11. […] (A) DU145 cells were treated with HF (1 μM), or EGF (10 ng/ml), or ethanol vehicle for 12 hours after the serum starvation. Cells were lysed and blotted with anti-cyclin D1 antibody. (B) DU145 cells were serum starved for 24 hours and then co-transfected DN Ras or DN Raf together with […] Luc reporter with SuperFect (Qiagen). After 4 hours, the medium was changed to normal medium (10% serum) for 18 hours and then changed to serum starvation condition for another 24 hours and then treated with HF, EGF, or ethanol vehicle control. Cells were lysed for luciferase activity analysis.

[3] = tested on: cyclin D1 promoter (−1745D1-Luc); assay: Cyclin D1 promoter luciferase reporter assay in DU145 cells; type: cell-based, human; settings: 10^−6 M HF or 30 ng/ml EGF
Description: as §1
197. DU145 cells were obtained from American Type Culture Collection and cultured in Dubecco's modified Eagles's medium (DMEM) supplemented with 10% fetal bovine serum (FBS). Cells (1×10^5) were seeded in 35 mm plates and transfected with the SuperFect transfection reagent (Qiagen, Chatworth, Calif.). After 4 hours the media were changed to serum-free DMEM media for 24 hours. Thereafter, the cells were treated with HF, EGF, and vehicle for 18 hours and then lysed for luciferase assay. Luciferase activity was normalized for taansfection efficiency using pRL-TK as an internal control. Luciferase assays were performed using dual-luciferase reporter system (Promega, Madison, Wis.).

AR [4] = assay: AR phosphorylation in LNCaP cells (immunoprecipitation / Western blot); type: cell-based, human
Description: (§2) 14. […] Anti-pSer, anti-phosphoserine antibody. […] Total AR protein was blotted using an anti-AR antibody (AR), and AR phosphorylation was detected using an anti-phospho-AR (S210) antibody (pAR). […] The cells were then harvested for immunoprecipitation with anti-AR antibody and Western blot analysis. NH27, anti-AR antibody, anti-pSer, anti-phosphoserine antibody.
(§3) 219. The imrnunoprecipitation and Western blotting were performed as previously described (Lin, H. K., et al. (2001) Proc Natl Acad Sci USA 98, 7200-7205). The cell extracts (1 mg) were immunoprecipitated with the indicated antibody. The immunocomplexes were subjected to 8% SDS-PAGE and immunoblotted with the indicated antibody.

AR [5] = assay: AR phosphorylation in COS-1 cells transfected with wtAR or mtAR; type: cell-based
Description: as §2, §3

For `CC1=C(/C=C/C(C)=C\C=C\C(C)=C\C(=O)O)C(C)(C)CCC1` [9 cis-retinoic acid, 9-cis retinoic acid], the “Raf detected in the Ras immunocomplex” value [1] was “not”.
`COc1cc2ncnc(Nc3cccc(Cl)c3)c2cc1OC` [AG1478] was tested, and the “levels of phospho-ERK1/2 induced by either HF or EGF” value ([2]; preincubation with 100 nM for 1 hour) was “decreased levels of phospho-ERK1/2”.
For `CC(C)C(=O)Nc1ccc([N+](=O)[O-])c(C(F)(F)F)c1` [Flutamide], the “cells stained positive for phospho-ERK1/2” value (phospho-ERK1/2) was 30% and 41% and 52% and 45%.
For `CS/C(N)=C(C#N)/C(C#N)=C(\N)SC` [U0124], the “block of HF-mediated MAP kinase activation” value ([2]; DU145 cells pre-incubated with inhibitor before HF treatment) was “not”.
`N#CC(=C(/N)Sc1ccccc1N)/C(C#N)=C(\N)Sc1ccccc1N` [U0126] was tested, and the “block of HF-mediated MAP kinase activation” value [2] was “can block HF-mediated MAP kinase activation”.
With `C[C@@H]1C[C@@H]([C@H](O)CC2CC(=O)NC(=O)C2)C(=O)[C@@H](C)C1` [cycloheximide] the “block of MAP kinase activation mediated by HF or EGF” value ([2]; Ten ng/ml cycloheximide, 1 hour pre-treatment) was “failed to block MAP kinase activation” and the “MAP kinase activation with ethanol added to cycloheximide treatment” value ([2]; no HF or EGF (lane 7)) was “slight increment”.
In the case of EGF: epidermal growth factor, the “Raf detected in the Ras immunocomplex” value [1] is reported as “detected”, the cell proliferation (DU145 cells; cells maintained in 10% FBS medium (data not shown)) is reported as “no significant stimulation of cell proliferation” and the cell proliferation (DU145 cells; low serum (0.5% FBS) after serum starvation) is reported as “stimulate the DU 145 cell growth significant; also recorded: can promote cell proliferation”. The “cyclin D1 expression” value (cyclin D1; HF (1 μM) or EGF (10 ng/ml) for 12 hours after serum starvation) was “induced”, the “other cell cycle related gene products (p27, p21, Ki67, PCNA)” value (cyclin D1; after HF- or EGF-treatment) was “no significant change” and the “induction of cyclin D1 promoter (−1745D1-Luc) activity” value [3] was “about 2 fold”.
In the case of IGF-1: insulin-like growth factor-1, the AR phosphorylation (AR [4]; LNCaP cells (P38), IGF-1 for 4 hours) is reported as “induced AR phosphorylation”, the “AR phosphorylation at S210” value (AR [4]; LNCaP cells treated with IGF-1, site-specific anti-phosphoserine AR antibody) is reported as “detected” and the “phosphorylation of mutant AR (mtAR) (S210A/S790A)” value (AR [5]; IGF-1) is reported as “did not induce phosphorylation”. The “wild-type (wtAR) phosphorylation” value (AR [5]; IGF-1 for 4 hours) was “induced wild-type (wtAR) phosphorylation”.
